Measured values: US20230293404A1, “Compositions Comprising Natural Polymers and One or More (Bio)-Alkanediols” (Symrise AG, priority 2020, published 2023)

Tests used:
[1] = system: microbial load of natural polymers; assay: Microbial load of mixtures of natural polymers with alkanediols (plating, CFU count); type: cell-based, bacteria
Procedure: The following tests were performed to show the influence of different alkanediols on the microbial load of natural polymers.
A selection of natural polymers as specified in Table 1 was systematically analyzed in combination with different 1,2-alkanediols and 2,3-alkanediols (0.5%). The polymers were chosen to be representative from different polymer classes:
A mixture of the natural polymer (concentration as recommended by supplier) with water and 1,2-alkanediol (0.5%) or 2,3-alkanediol (0.5%) or a mixture of 1,2-alkanediol and 2,3-alkanediol (0.5% final concentration) was prepared, as representative of a cold formulation preparation processes, and directly sampled for determination of microbial load. Additionally, the mixtures were stored at 40° C. and again sampled for microbial load after 2 days and 7 days.
The microbial load of the mixtures was determined by plating 1000 μl (or respective dilutions of the material) on an agar plate based on universal bacterial growth medium (Caseinpepton-Sojamehlpepton-Bouillon, Merck 1.05459+Agar No. 1, Oxoid LP0011). The plates were then incubated at 37° C. for 5 days and then photo documented. In parallel, bacterial colonies were counted (CFU—colony forming units per ml).

[2] = Maximum solubility of alkanediols in water (visual assessment); type: physicochemical; conditions: assessed at ambient temperature after 24 h storage at 5° C.; visual observation
Excerpt: The water solubility of a substance is the saturation mass concentration of the substance in water at a given temperature. The determination of the solubility in water relates to essentially pure substances which are stable in water and not volatile.
For the determination of the maximum water solubility of an alkanediol, water and different concentrations of the respective alkanediol were blended by stirring. […] The determination of whether the alkanediol has dissolved in water is based entirely on visual observation.

[3] = Physical state of alkanediols and alkanediol mixtures at RTP; type: physicochemical; conditions: at RTP (room temperature, normal pressure); FIG. 3 and FIG. 4
Excerpt: The term “liquid alkanediol” within the context of the present invention means an alkanediol component which is liquid at room or ambient temperature and under normal pressure, i.e. standard RTP conditions.
FIG. 3 is a photograph showing from left to right samples of the liquid 1,2-pentanediol, 1,2-hexanediol, 1,2-heptanediol, 2,3-heptanediol, 2,3-octanediol and 2,3-undecanediol in comparison to the solid 1,2-octanediol, 1,2-undecanediol, 1,2-nonanediol and the liquid 2,3-nonanediol. The first six alkanediols are liquid at RTP, whereas 1,2-octanediol, 1,2-nonanediol and 1,2-undecanediol are solid substances at RTP; 2,3-nonanediol is also liquid at RTP.
FIG. 4 is a representative photograph of samples of mixtures of 1,2-alkanediols with the respective 2,3-alkanediol. All mixtures are liquid. They are shown in the following order: 1,2-heptanediol (95%)+2,3-heptanediol (5%), 1,2-octanediol (95%)+2,3-octanediol (5%), and 1,2-nonanediol (95%)+2,3-nonanediol (5%).

Q: With CCCCCC(O)C(C)O (centres unmarked) [2,3-octanediol] as the compound, how does the “Bacterial load (colony forming units)” value ([1]; Covathick (0.5%) in water + 0.5% 2,3-alkanediol, 2 days storage at 40° C.) read?
A: 0 CFU per mL

Q: And the “Bacterial load (colony forming units)” value ([1]; Covathick (0.5%) in water + 0.5% 2,3-alkanediol, 7 days storage at 40° C.)?
A: 0 CFU per mL

Q: What about the “Bacterial load (colony forming units)” value ([1]; Covathick (0.5%) in water + 0.5% 2,3-alkanediol, fresh) of the same compound?
A: 4 CFU per mL

Q: And the “Bacterial load (colony forming units)” value ([1]; Genuvisco (0.5%) in water + 0.5% 2,3-alkanediol, 2 days storage at 40° C.)?
A: 0 CFU per mL

Q: What about the “Bacterial load (colony forming units)” value ([1]; Genuvisco (0.5%) in water + 0.5% 2,3-alkanediol, 7 days storage at 40° C.) of the same compound?
A: 0 CFU per mL

Q: What about the “Bacterial load (colony forming units)” value ([1]; Genuvisco (0.5%) in water + 0.5% 2,3-alkanediol, fresh) of the same compound?
A: 5 CFU per mL

Q: What about the “Bacterial load (colony forming units)” value ([1]; Polycos-N 75 (0.5%) in water + 0.5% 2,3-alkanediol, 2 days storage at 40° C.) of the same compound?
A: 0 CFU per mL

Q: What about the “Bacterial load (colony forming units)” value ([1]; Polycos-N 75 (0.5%) in water + 0.5% 2,3-alkanediol, 7 days storage at 40° C.) of the same compound?
A: 0 CFU per mL

Q: What about the “Bacterial load (colony forming units)” value ([1]; Polycos-N 75 (0.5%) in water + 0.5% 2,3-alkanediol, fresh) of the same compound?
A: 1 CFU per mL

Q: And the “Bacterial load (colony forming units)” value ([1]; Xanthan Gum (0.5%) in water + 0.5% 2,3-alkanediol, 2 days storage at 40° C.)?
A: 0 CFU per mL

Q: What about the “Bacterial load (colony forming units)” value ([1]; Xanthan Gum (0.5%) in water + 0.5% 2,3-alkanediol, 7 days storage at 40° C.) of the same compound?
A: 0 CFU per mL

Q: And the “Effect on the microbial load of the natural polymer solutions (in words)” value ([1]; directly after preparation of the mixtures as well as after 7 days storage, Table 3)?
A: superior antimicrobial activity

Q: What about the “Maximum solubility in water” value [2] of the same compound?
A: 1.5 % by weight

Q: And the Physical state [3]?
A: liquid
